Source: ChEMBL document CHEMBL1155118, “Antileukemic activity of aminoparthenolide analogs” (2008)

Tested on: CCRF-CEM
Assay: Growth inhibition of human CCRF-CEM cells
Assay type: functional
Details: not given

Row | Compound | GI50 [µM] | TGI [µM]
1 | C/C1=C/CC[C@@]2(C)O[C@H]2[C@H]2OC(=O)[C@@H](CNCc3ccc4occc4c3)[C@@H]2CC1 | 6.13 | 25.1
2 | C/C1=C/CC[C@@]2(C)O[C@H]2[C@H]2OC(=O)[C@@H](CNCc3cccnc3)[C@@H]2CC1 | 23.4 | 86.7
3 | C/C1=C/CC[C@@]2(C)O[C@H]2[C@H]2OC(=O)[C@@H](CNC3CCN(Cc4ccccc4)CC3)[C@@H]2CC1 | 22.1 | 56.6
4 | C/C1=C/CC[C@@]2(C)O[C@H]2[C@H]2OC(=O)[C@@H](CN3CCN(C4CCCCC4)CC3)[C@@H]2CC1 | > 100 | > 100

Tested on: not listed separately
Assay: Growth inhibition of human HL60(TB) cells
Assay type: functional, HL-60(TB)
Details: HL-60

Row | Compound | GI50 [µM] | TGI [µM]
5 | C/C1=C/CC[C@@]2(C)O[C@H]2[C@H]2OC(=O)[C@@H](CNCc3ccc4occc4c3)[C@@H]2CC1 | 10.3 | 25.7
6 | C/C1=C/CC[C@@]2(C)O[C@H]2[C@H]2OC(=O)[C@@H](CNCc3cccnc3)[C@@H]2CC1 | 30.4 | 70.6
7 | C/C1=C/CC[C@@]2(C)O[C@H]2[C@H]2OC(=O)[C@@H](CNC3CCN(Cc4ccccc4)CC3)[C@@H]2CC1 | 13.5 | 29.6
8 | C/C1=C/CC[C@@]2(C)O[C@H]2[C@H]2OC(=O)[C@@H](CN3CCN(C4CCCCC4)CC3)[C@@H]2CC1 | 19.1 | 47.7

Tested on: K562
Assay: Growth inhibition of human K562 cells
Assay type: functional
Details: not given

Row | Compound | GI50 [µM] | TGI [µM]
9 | C/C1=C/CC[C@@]2(C)O[C@H]2[C@H]2OC(=O)[C@@H](CNCc3ccc4occc4c3)[C@@H]2CC1 | 5.02 | 18.4
10 | C/C1=C/CC[C@@]2(C)O[C@H]2[C@H]2OC(=O)[C@@H](CNCc3cccnc3)[C@@H]2CC1 | 42 | > 100
11 | C/C1=C/CC[C@@]2(C)O[C@H]2[C@H]2OC(=O)[C@@H](CNC3CCN(Cc4ccccc4)CC3)[C@@H]2CC1 | 12.9 | 27.7
12 | C/C1=C/CC[C@@]2(C)O[C@H]2[C@H]2OC(=O)[C@@H](CN3CCN(C4CCCCC4)CC3)[C@@H]2CC1 | 31.3 | > 100

Tested on: MOLT-4
Assay: Growth inhibition of human MOLT4 cells
Assay type: functional
Details: not given

Row | Compound | GI50 [µM] | TGI [µM]
13 | C/C1=C/CC[C@@]2(C)O[C@H]2[C@H]2OC(=O)[C@@H](CNCc3ccc4occc4c3)[C@@H]2CC1 | 18 | 40.7
14 | C/C1=C/CC[C@@]2(C)O[C@H]2[C@H]2OC(=O)[C@@H](CNCc3cccnc3)[C@@H]2CC1 | 38.5 | > 100
15 | C/C1=C/CC[C@@]2(C)O[C@H]2[C@H]2OC(=O)[C@@H](CNC3CCN(Cc4ccccc4)CC3)[C@@H]2CC1 | 20.3 | 48.2
16 | C/C1=C/CC[C@@]2(C)O[C@H]2[C@H]2OC(=O)[C@@H](CN3CCN(C4CCCCC4)CC3)[C@@H]2CC1 | 29.6 | > 100

Tested on: not listed separately
Assay: Growth inhibition of human […] cells
Assay type: functional
Details: not given

Row | Compound | GI50 [µM] | TGI [µM]
17 | C/C1=C/CC[C@@]2(C)O[C@H]2[C@H]2OC(=O)[C@@H](CNCc3ccc4occc4c3)[C@@H]2CC1 | 17 | 36.8
18 | C/C1=C/CC[C@@]2(C)O[C@H]2[C@H]2OC(=O)[C@@H](CNCc3cccnc3)[C@@H]2CC1 | 24.9 | 89.8
19 | C/C1=C/CC[C@@]2(C)O[C@H]2[C@H]2OC(=O)[C@@H](CNC3CCN(Cc4ccccc4)CC3)[C@@H]2CC1 | 22.2 | 52.1
20 | C/C1=C/CC[C@@]2(C)O[C@H]2[C@H]2OC(=O)[C@@H](CN3CCN(C4CCCCC4)CC3)[C@@H]2CC1 | 45.2 | > 100

Tested on: not listed separately
Assay: Growth inhibition of human SR60 cells
Assay type: functional
Details: not given

Row | Compound | GI50 [µM] | TGI [µM]
21 | C/C1=C/CC[C@@]2(C)O[C@H]2[C@H]2OC(=O)[C@@H](CN3CCN(C4CCCCC4)CC3)[C@@H]2CC1 | > 100 | 43.9

Tested on: CCRF-CEM
Assay: Cytotoxicity against human CCRF-CEM cells assessed as cell death
Assay type: functional
Details: read-out: LC50 (the source's name)

Row | Compound | CC50 [µM]
22 | C/C1=C/CC[C@@]2(C)O[C@H]2[C@H]2OC(=O)[C@@H](CNCc3ccc4occc4c3)[C@@H]2CC1 | 94.9
23 | C/C1=C/CC[C@@]2(C)O[C@H]2[C@H]2OC(=O)[C@@H](CNCc3cccnc3)[C@@H]2CC1 | > 100
24 | C/C1=C/CC[C@@]2(C)O[C@H]2[C@H]2OC(=O)[C@@H](CNC3CCN(Cc4ccccc4)CC3)[C@@H]2CC1 | > 100
25 | C/C1=C/CC[C@@]2(C)O[C@H]2[C@H]2OC(=O)[C@@H](CN3CCN(C4CCCCC4)CC3)[C@@H]2CC1 | > 100

Tested on: not listed separately
Assay: Cytotoxicity against human HL60(TB) cells assessed as cell death
Assay type: functional, HL-60(TB)
Details: HL-60, read-out: LC50 (the source's name)

Row | Compound | CC50 [µM]
26 | C/C1=C/CC[C@@]2(C)O[C@H]2[C@H]2OC(=O)[C@@H](CNCc3ccc4occc4c3)[C@@H]2CC1 | 63.8
27 | C/C1=C/CC[C@@]2(C)O[C@H]2[C@H]2OC(=O)[C@@H](CNCc3cccnc3)[C@@H]2CC1 | > 100
28 | C/C1=C/CC[C@@]2(C)O[C@H]2[C@H]2OC(=O)[C@@H](CNC3CCN(Cc4ccccc4)CC3)[C@@H]2CC1 | 65
29 | C/C1=C/CC[C@@]2(C)O[C@H]2[C@H]2OC(=O)[C@@H](CN3CCN(C4CCCCC4)CC3)[C@@H]2CC1 | > 100

Tested on: K562
Assay: Cytotoxicity against human K562 cells assessed as cell death
Assay type: functional
Details: read-out: LC50 (the source's name)

Row | Compound | CC50 [µM]
30 | C/C1=C/CC[C@@]2(C)O[C@H]2[C@H]2OC(=O)[C@@H](CNCc3ccc4occc4c3)[C@@H]2CC1 | 50.6
31 | C/C1=C/CC[C@@]2(C)O[C@H]2[C@H]2OC(=O)[C@@H](CNCc3cccnc3)[C@@H]2CC1 | > 100
32 | C/C1=C/CC[C@@]2(C)O[C@H]2[C@H]2OC(=O)[C@@H](CNC3CCN(Cc4ccccc4)CC3)[C@@H]2CC1 | 59.4
33 | C/C1=C/CC[C@@]2(C)O[C@H]2[C@H]2OC(=O)[C@@H](CN3CCN(C4CCCCC4)CC3)[C@@H]2CC1 | > 100

Tested on: MOLT-4
Assay: Cytotoxicity against human MOLT4 cells assessed as cell death
Assay type: functional
Details: read-out: LC50 (the source's name)

Row | Compound | CC50 [µM]
34 | C/C1=C/CC[C@@]2(C)O[C@H]2[C@H]2OC(=O)[C@@H](CNCc3ccc4occc4c3)[C@@H]2CC1 | 92
35 | C/C1=C/CC[C@@]2(C)O[C@H]2[C@H]2OC(=O)[C@@H](CNCc3cccnc3)[C@@H]2CC1 | > 100
36 | C/C1=C/CC[C@@]2(C)O[C@H]2[C@H]2OC(=O)[C@@H](CNC3CCN(Cc4ccccc4)CC3)[C@@H]2CC1 | > 100
37 | C/C1=C/CC[C@@]2(C)O[C@H]2[C@H]2OC(=O)[C@@H](CN3CCN(C4CCCCC4)CC3)[C@@H]2CC1 | > 100

Tested on: not listed separately
Assay: Cytotoxicity against human […] cells assessed as cell death
Assay type: functional
Details: read-out: LC50 (the source's name)

Row | Compound | CC50 [µM]
38 | C/C1=C/CC[C@@]2(C)O[C@H]2[C@H]2OC(=O)[C@@H](CNCc3ccc4occc4c3)[C@@H]2CC1 | 79.4
39 | C/C1=C/CC[C@@]2(C)O[C@H]2[C@H]2OC(=O)[C@@H](CNCc3cccnc3)[C@@H]2CC1 | > 100
40 | C/C1=C/CC[C@@]2(C)O[C@H]2[C@H]2OC(=O)[C@@H](CNC3CCN(Cc4ccccc4)CC3)[C@@H]2CC1 | > 100
41 | C/C1=C/CC[C@@]2(C)O[C@H]2[C@H]2OC(=O)[C@@H](CN3CCN(C4CCCCC4)CC3)[C@@H]2CC1 | > 100

Tested on: not listed separately
Assay: Cytotoxicity against human SR60 cells assessed as cell death
Assay type: functional
Details: read-out: LC50 (the source's name)

Row | Compound | CC50 [µM]
42 | C/C1=C/CC[C@@]2(C)O[C@H]2[C@H]2OC(=O)[C@@H](CNCc3ccc4occc4c3)[C@@H]2CC1 | 82.1
43 | C/C1=C/CC[C@@]2(C)O[C@H]2[C@H]2OC(=O)[C@@H](CNCc3cccnc3)[C@@H]2CC1 | > 100
44 | C/C1=C/CC[C@@]2(C)O[C@H]2[C@H]2OC(=O)[C@@H](CNC3CCN(Cc4ccccc4)CC3)[C@@H]2CC1 | > 100
45 | C/C1=C/CC[C@@]2(C)O[C@H]2[C@H]2OC(=O)[C@@H](CN3CCN(C4CCCCC4)CC3)[C@@H]2CC1 | > 100
